biological target: T1, GCase (Homo sapiens, UniProt P04062); experiment: activation of GCase in a live cell PFB assay in HELA cells; format: cell-based; conditions: activation of GCase, EC50 ranges
T1 construct: endogenous in cells; host or cells: HeLa cells
T1 sequence (P04062 40-536): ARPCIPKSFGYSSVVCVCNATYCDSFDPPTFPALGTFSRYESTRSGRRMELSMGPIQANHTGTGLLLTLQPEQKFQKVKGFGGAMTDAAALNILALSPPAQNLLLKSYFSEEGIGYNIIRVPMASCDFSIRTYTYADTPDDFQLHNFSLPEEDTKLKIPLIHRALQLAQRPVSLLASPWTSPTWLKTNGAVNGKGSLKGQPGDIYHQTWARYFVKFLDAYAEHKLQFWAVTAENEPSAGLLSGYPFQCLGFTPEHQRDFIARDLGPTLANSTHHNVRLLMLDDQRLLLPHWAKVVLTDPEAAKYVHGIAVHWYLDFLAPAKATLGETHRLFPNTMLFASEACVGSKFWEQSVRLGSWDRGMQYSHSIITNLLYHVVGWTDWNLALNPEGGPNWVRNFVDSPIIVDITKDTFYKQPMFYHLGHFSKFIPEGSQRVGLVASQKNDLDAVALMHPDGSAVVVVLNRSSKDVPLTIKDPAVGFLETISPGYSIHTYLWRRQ
Protocol: Exemplary compounds were evaluated for activation of GCase in a live cell PFB assay in HELA cells (essentially as described in Ysselstein et al., “LRRK2 kinase activity regulates lysosomal glucocerebrosidase in neurons derived from Parkinson's disease patients” Nature Communications (2019) 10:5570). […] EC50 ranges: A: <10 μM; B: >10-50 μM; C: >50-100 μM; D: >100 μM.

SMILES	EC50
CCn1cc(N2CCC3(CCN(c4cnc5cnn(CC(F)F)c5n4)CC3)C2=O)ccc1=O [Cmpd 846]	10 to 50 µM
CCn1nc(N2CCC3(CCN(c4cnc5cnn(CC(F)F)c5n4)CC3)C2=O)ccc1=O [Cmpd 847]	10 to 50 µM
CC(C)N1C(=O)N(c2ccc(C(F)(F)F)nc2)C(=O)C12CCN(c1cnc3cnn(CC(F)F)c3n1)CC2 [Cmpd 848]	10 to 50 µM
CCN1C(=O)N(c2ccc(C(F)(F)F)nc2)C(=O)C12CCN(c1cnc3cnn(CC(F)F)c3n1)CC2 [Cmpd 849]	< 10 µM
CCN1C(=O)N(c2ccnc(C(F)(F)F)c2)C(=O)C12CCN(c1cnc3cnn(CC(F)F)c3n1)CC2 [Cmpd 850]	< 10 µM
CCC1N(c2ccc(C(F)(F)F)cn2)C(=O)CC12CCN(c1cnc3cnn(CC(F)F)c3n1)CC2 (stereo not shown) [Cmpd 851]	< 10 µM
CCC1N(c2ccc(C(F)(F)F)nc2)C(=O)CC12CCN(c1cnc3cnn(CC(F)F)c3n1)CC2 (stereo not shown) [Cmpd 852]	10 to 50 µM
CCC1N(c2ccnc(C(F)(F)F)c2)C(=O)CC12CCN(c1cnc3cnn(CC(F)F)c3n1)CC2 (stereo not shown) [Cmpd 853]	10 to 50 µM
CC[C@H]1N(c2ccnc(C(F)(F)F)c2)C(=O)CC12CCN(c1cnc3cnn(CC(F)F)c3n1)CC2 [Cmpd 854]	10 to 50 µM
CC[C@@H]1N(c2ccnc(C(F)(F)F)c2)C(=O)CC12CCN(c1cnc3cnn(CC(F)F)c3n1)CC2 [Cmpd 855]	10 to 50 µM
O=C1CC2(CCN(c3cnc4cnn(C5COC5)c4n3)CC2)CN1c1ccc(C(F)(F)F)nc1 [Cmpd 856]	10 to 50 µM
O=C1CC2(CCN(c3cnc4cnn(C5COC5)c4n3)CC2)CN1c1ccc(C(F)(F)F)cn1 [Cmpd 857]	< 10 µM
CCC1N(c2ccc(C(F)(F)F)nc2)C(=O)CC12CCN(c1cnc3cnn(C4COC4)c3n1)CC2 (stereo not shown) [Cmpd 858]	10 to 50 µM
CCC1N(c2ccc(C(F)(F)F)cn2)C(=O)CC12CCN(c1cnc3cnn(C4COC4)c3n1)CC2 (stereo not shown) [Cmpd 859]	10 to 50 µM
CCN1C(=O)N(c2cnc3cnn(CC(F)F)c3n2)C(=O)C12CCN(c1ccc(C(F)(F)F)cn1)CC2 [Cmpd 860]	10 to 50 µM
CCN1C(=O)N(c2cnc3cnn(CC(F)F)c3n2)C(=O)C12CCN(c1ccc(C(F)(F)F)nc1)CC2 [Cmpd 861]	< 10 µM
O=C1CC2(CCN(c3cnc4cnn(C5COC5)c4n3)CC2)CN1c1cnc(C(F)(F)F)cn1 [Cmpd 862]	> 100 µM
O=C1C[C@@]2(CC3CCC2CN3c2cnc3cnn(CC(F)F)c3n2)CN1c1ccc(C(F)(F)F)cn1 (stereo partly shown) [Cmpd 863]	< 10 µM
O=C1C[C@]2(CC3CCC2CN3c2cnc3cnn(CC(F)F)c3n2)CN1c1ccc(C(F)(F)F)cn1 (stereo partly shown) [Cmpd 864]	10 to 50 µM
O=C1CC2(CC3CCC2CN3c2cnc3cnn(CC(F)F)c3n2)CN1c1ccc(C(F)(F)F)nc1 (stereo not shown) [Cmpd 865]	10 to 50 µM
CCN1C(=O)N(c2ccc(C(F)(F)F)nc2)C(=O)C12CCN(c1cnc3cnn(C4COC4)c3n1)CC2 [Cmpd 866]	10 to 50 µM
CC(C)N1C(=O)N(c2ccc(C(F)(F)F)nc2)C(=O)C12CCN(c1cnc3cnn(C4COC4)c3n1)CC2 [Cmpd 867]	> 100 µM
CCN1C(=O)N(c2ccc(C(F)(F)F)cc2)C(=O)C12CCN(c1cnc3cnn(CC(F)F)c3n1)CC2 [Cmpd 868]	10 to 50 µM
CCN1C(=O)N(c2ccc(C(F)(F)F)cc2)C(=O)C12CCN(c1cnc3cnn(C4COC4)c3n1)CC2 [Cmpd 869]	10 to 50 µM
CCN1C(=O)N(c2ccc(C(F)(F)F)nc2)C(=O)C12CCN(c1cnc3c(C)nn(C4COC4)c3n1)CC2 [Cmpd 870]	> 100 µM
CCN1C(=O)N(c2ccc(C(F)(F)F)nc2)C(=O)C12CCN(c1cnc3c(C)nn(CC(F)F)c3n1)CC2 [Cmpd 871]	10 to 50 µM
CCN1C(=O)N(c2ccc(C(F)(F)F)cc2)C(=O)C12CCN(c1cnc3c(C)nn(CC(F)F)c3n1)CC2 [Cmpd 872]	< 10 µM

Next, values leading:

EC50	SMILES
10 to 50 µM	CCN1C(=O)N(c2ccc(C(F)(F)F)nc2)C(=O)C12CCN(c1ncc3cnn(CC(F)F)c3n1)CC2 [Cmpd 873]
< 10 µM	CCN1C(=O)N(c2ccc(C(F)(F)F)nc2)C(=O)C12CCN(c1ncc3c(C)nn(CC(F)F)c3n1)CC2 [Cmpd 874]
< 10 µM	O=C1N(c2ccc(C(F)(F)F)nc2)C(=O)C2(CCN(c3ncc4cnn(CC(F)F)c4n3)CC2)N1CC(F)F [Cmpd 875]
10 to 50 µM	O=C1N(c2ccc(C(F)(F)F)nc2)C(=O)C2(CCN(c3cnc4cnn(CC(F)F)c4n3)CC2)N1CC(F)F [Cmpd 876]
< 10 µM	O=C1N(c2ccc(C(F)(F)F)nc2)C(=O)C2(CCN(c3cnc4cnn(CC(F)F)c4n3)CC2)N1CCOC(F)(F)F [Cmpd 877]
10 to 50 µM	CCN1C(=O)N(c2ccc(C(F)(F)F)nc2)C(=O)C12CCN(c1ncc3c(C)nn(C4COC4)c3n1)CC2 [Cmpd 878]
< 10 µM	CN1C(=O)N(c2ccc(C(F)(F)F)nc2)C(=O)C12CCN(c1cnc3cnn(CC(F)F)c3n1)CC2 [Cmpd 879]
< 10 µM	O=C1N(c2ccc(C(F)(F)F)nc2)C(=O)C2(CCN(c3cnc4cnn(CC(F)F)c4n3)CC2)N1CCC1CC1 [Cmpd 880]
< 10 µM	O=C1N(c2ccc(C(F)(F)F)nc2)C(=O)C2(CCN(c3cnc4cnn(CC(F)F)c4n3)CC2)N1CCCC(F)(F)F [Cmpd 881]
10 to 50 µM	O=C1N(c2ccc(C(F)(F)F)nc2)C(=O)C2(CCN(c3cnc4cnn(CC(F)F)c4n3)CC2)N1Cc1cncc(F)c1 [Cmpd 883]
10 to 50 µM	Cc1nn(C2COC2)c2nc(N3CCC4(CC3)CCN(c3ccc(C(F)(F)F)nc3)C4=O)ncc12 [Cmpd 884]
10 to 50 µM	Cc1nn(C2COC2)c2nc(N3CCC4(CC3)CCN(c3ccc(C(F)(F)F)nc3)C4=O)cnc12 [Cmpd 885]
10 to 50 µM	O=C1N(c2ccc(C(F)(F)F)nc2)CCC12CCN(c1cnc3cnn(C4COC4)c3n1)CC2 [Cmpd 886]
10 to 50 µM	Cc1nn(C2COC2)c2nc(N3CCC4(CCN(c5ccc(C(F)(F)F)nc5)C4)CC3)ncc12 [Cmpd 887]
< 10 µM	Cc1nn(C2COC2)c2nc(N3CCC4(CCN(c5ccc(C(F)(F)F)nc5)C4)CC3)cnc12 [Cmpd 888]
< 10 µM	CCn1ncc2cnc(N3CCC4(CC3)CC(=O)N(c3ccc(C(F)(F)F)nc3)C4)nc21 [Cmpd 889]
< 10 µM	CCn1ncc2ncc(N3CCC4(CC3)CC(=O)N(c3ccc(C(F)(F)F)nc3)C4)nc21 [Cmpd 890]
10 to 50 µM	O=C1CC2(CCN(c3cnc4cnn(CC(F)F)c4n3)CC2)CN1c1ccc(Cl)nc1 [Cmpd 891]
< 10 µM	O=C1CC2(CCN(c3cnc4cnn(CC(F)F)c4n3)CC2)CN1c1cncc(Cl)c1 [Cmpd 893]
10 to 50 µM	O=C1CC2(CCN(c3cnc4cnn(CC(F)F)c4n3)CC2)CN1Cc1cnc(OCC(F)(F)F)nc1 [Cmpd 894]

EC50	SMILES
< 10 µM	O=C1CC2(CCN(c3cnc4cnn(CC(F)F)c4n3)CC2)CN1c1ccnc(C(F)(F)F)n1 [Cmpd 895]
< 10 µM	O=C1N(c2ccnc(C(F)(F)F)n2)CCC12CCN(c1cnc3cnn(CC(F)F)c3n1)CC2 [Cmpd 896]
< 10 µM	Cc1nn(CC(F)F)c2nc(N3CCC4(CC3)CCN(c3ccnc(C(F)(F)F)n3)C4=O)cnc12 [Cmpd 897]
< 10 µM	Cc1nn(CC(F)F)c2nc(N3CCC4(CC3)CC(=O)N(c3ccnc(C(F)(F)F)n3)C4)cnc12 [Cmpd 898]
< 10 µM	Cc1nc(N2CC3(CCN(c4ncc5c(n4)n(C4COC4)c(=O)n5C)C3)C2)cc(C(F)(F)F)n1 [Cmpd 899]
< 10 µM	O=C1N(c2ccnc(C(F)(F)F)n2)CCC12CCN(c1ncc3cnn(CC(F)F)c3n1)CC2 [Cmpd 900]
< 10 µM	O=C1CC2(CCN(c3ncc4cnn(CC(F)F)c4n3)CC2)CN1c1ccnc(C(F)(F)F)n1 [Cmpd 901]
< 10 µM	Cc1nn(CC(F)F)c2nc(N3CCC4(CC3)CC(=O)N(c3ccnc(C(F)(F)F)n3)C4)ncc12 [Cmpd 903]
< 10 µM	CCC1N(c2ccnc(C(F)(F)F)n2)C(=O)CC12CCN(c1cnc3cnn(CC(F)F)c3n1)CC2 (stereo not shown) [Cmpd 904]
10 to 50 µM	CCC1N(c2cnc(C(F)(F)F)nc2)C(=O)CC12CCN(c1cnc3cnn(CC(F)F)c3n1)CC2 (stereo not shown) [Cmpd 905]
10 to 50 µM	CCN1C(=O)N(c2ccnc(C(F)(F)F)n2)C(=O)C12CCN(c1cnc3cnn(CC(F)F)c3n1)CC2 [Cmpd 906]
< 10 µM	O=C1CC2(CCN(c3cnc4cnn(C5COC5)c4n3)CC2)CN1c1ccnc(C(F)(F)F)n1 [Cmpd 907]
10 to 50 µM	CCN1C(=O)N(c2ccnc(C(F)(F)F)n2)C(=O)C12CCN(c1cnc3cnn(C4COC4)c3n1)CC2 [Cmpd 909]
10 to 50 µM	O=C1CC2(CCN1c1ccc(C(F)(F)F)nc1)CN(c1cnc3cnn(CC(F)F)c3n1)C2 [Cmpd 910]
10 to 50 µM	O=C1CC2(CCN1c1cnc3cnn(CC(F)F)c3n1)CN(c1ccc(C(F)(F)F)cn1)C2 [Cmpd 911]
10 to 50 µM	O=C1CC2(CCN1c1ccc(C(F)(F)F)cn1)CN(c1cnc3cnn(CC(F)F)c3n1)C2 [Cmpd 912]
10 to 50 µM	O=C1CC2(CCN1c1cnc3cnn(CC(F)F)c3n1)CN(c1ccc(C(F)(F)F)nc1)C2 [Cmpd 913]
10 to 50 µM	CC(c1cnc(C(F)(F)F)nc1)N1CC2(CCN(c3cnc4cnn(CC(F)F)c4n3)CC2)CC1=O (stereo not shown) [Cmpd 914]
< 10 µM	O=C1CC2(CCN(c3cnc4cnn(CC(F)F)c4n3)CC2)CN1Cc1ccnc(C(F)(F)F)n1 [Cmpd 915]
< 10 µM	O=C1CC2(CCN(c3ncc4cnn(CC(F)F)c4n3)CC2)CN1c1cnc(C(F)(F)F)nc1 [Cmpd 916]

— patent US20250034170A1, “SMALL MOLECULE MODULATORS OF GLUCOCEREBROSIDASE ACTIVITY AND USES THEREOF” (Vanqua Bio, Inc., priority 2021, published 2025)
